This note sets out measurements from patent publication US20100130737A1, “Regulating Agent of GPR34 Receptor Function” (TAKEDA PHARMACEUTICAL COMPANY LIMITED, priority 2005, published 2010).

Where a name gives a salt, the structure may show the parent alone.

As usually defined, the melting point is the temperature of the solid-liquid transition. Consider `N[C@H](Cc1c[nH]c2ccccc12)C(=O)NC1(C(=O)O)Cc2ccc(-c3ccc(Cl)cc3)cc2C1` (stereo partly drawn) (as salt: hydrochloride) [Example B122, 5-(4-Chlorophenyl)-2-(D-tryptophylamino)indan-2-carboxylic acid hydrochloride], for which the melting point fell in the range of 168 to 170 °C.

In the case of `Cc1nc2ccccc2n1CC(=O)NC1(C(=O)O)Cc2ccc(-c3ccc(Cl)cc3)cc2C1` (stereo not shown) (as salt: hydrochloride) [Example B159, 5-(4-Chlorophenyl)-2-{[(2-methyl-1H-benzimidazol-1-yl)acetyl]amino}indan-2-carboxylic acid hydrochloride], the melting point is 284 to 285 °C.

On to `O=C(Cc1cccnc1)NC1(C(=O)O)Cc2ccc(-c3ccc(Cl)cc3)cc2C1` (stereo not shown) (as salt: hydrochloride) [Example B175, 5-(4-Chlorophenyl)-2-[(pyridin-3-ylacetyl)amino]indan-2-carboxylic acid hydrochloride], for which the melting point stood at 288 °C.

Compound `Cc1c(C(=O)NC(Cc2ccc(OCc3ccc(F)cc3)cc2)C(=O)O)oc2cc(-c3ccc(Cl)cc3)ccc12` (racemic) [Example C117, N-{[6-(4-Chlorophenyl)-3-methyl-1-benzofuran-2-yl]carbonyl}-O-(4-fluorobenzyl)-DL-tyrosine] had a melting point of 147 to 149 °C.

`O=C(Cc1ccc(OCc2ccccc2)cc1)Nc1c(C(=O)O)oc2cc(-c3ccc(Cl)cc3)ccc12` [Example A23, 3-({[4-(Benzyloxy)phenyl]acetyl}amino)-6-(4-chlorophenyl)-1-benzofuran-2-carboxylic acid] registered a melting point of 211 to 212 °C.

In the case of `O=C(Cc1ccc(OCc2ccc(F)cc2)cc1)Nc1c(C(=O)O)oc2cc(-c3ccc(Cl)cc3)ccc12` [Example A24, 6-(4-Chlorophenyl)-3-[({4-[(4-fluorobenzyl)oxy]phenyl}acetyl)amino]-1-benzofuran-2-carboxylic acid], the melting point lay in the range of 205 to 206 °C.

In the case of `O=C(CCc1ccc(OCc2ccccc2)cc1)Nc1c(C(=O)O)oc2cc(-c3ccc(Cl)cc3)ccc12` [Example A25, 3-({3-[4-(Benzyloxy)phenyl]propanoyl}amino)-6-(4-chlorophenyl)-1-benzofuran-2-carboxylic acid], the melting point fell in the range of 209 to 210 °C.

`O=C(CSc1nc2ccccc2s1)NC1(C(=O)O)Cc2ccc(-c3ccc(Cl)cc3)cc2C1` (stereo not shown) [Example B117, 2-{[(1,3-Benzothiazol-2-ylthio)acetyl]amino}-5-(4-chlorophenyl)indan-2-carboxylic acid] had a melting point of 205 to 207 °C.

For `CC(C)(C)OC(=O)NCCC(=O)NC1(C(=O)O)Cc2ccc(-c3ccc(Cl)cc3)cc2C1` (stereo not shown) [Example B118, 2-{[3-(tert-Butoxycarbonylamino)propionyl]amino}-5-(4-chlorophenyl) indan-2-carboxylic acid], the melting point was in the range of 212 to 214 °C.

As to `CC(C)(C)OC(=O)N[C@H](Cc1c[nH]c2ccccc12)C(=O)NC1(C(=O)O)Cc2ccc(-c3ccc(Cl)cc3)cc2C1` (stereo partly drawn) [Example B119, 2-{[N-(tert-Butoxycarbonyl)-D-tryptophyl]amino}-5-(4-chlorophenyl)indan-2-carboxylic acid], the melting point was found to be 158 °C.

With `CC(C)(C)OC(=O)N[C@@H](Cc1ccccc1)C(=O)NC1(C(=O)O)Cc2ccc(-c3ccc(Cl)cc3)cc2C1` (stereo partly shown) [Example B120, 2-{[N-(tert-Butoxycarbonyl)phenylalanyl]amino}-5-(4-chlorophenyl)indan-2-carboxylic acid], the melting point was 140 to 142 °C.

On to `O=C(CN1CCN(c2ccccc2)CC1)NC1(C(=O)O)Cc2ccc(-c3ccc(Cl)cc3)cc2C1` (stereo not shown) [Example B124, 5-(4-Chlorophenyl)-2-{[(4-phenylpiperazine-1-yl)acetyl]amino)indan-2-carboxylic acid], for which the melting point came to 247 °C.

As for `O=C(Cc1ccccc1OCc1ccccc1)NC1(C(=O)O)Cc2ccc(-c3ccc(Cl)cc3)cc2C1` (stereo not shown) [Example B126, 2-({[2-(Benzyloxy)phenyl]acetyl}amino)-5-(4-chlorophenyl)indan-2-carboxylic acid], the melting point worked out at 245 °C.

The compound `O=C(Cc1ccc(Cl)cc1)NC1(C(=O)O)Cc2ccc(-c3ccc(Cl)cc3)cc2C1` (stereo not shown) [Example B127, 5-(4-Chlorophenyl)-2-{[(4-chlorophenyl)acetyl]amino}indan-2-carboxylic acid] gave a melting point of 251 °C.

Compound `O=C(CN1CCN(C(c2ccc(F)cc2)c2ccc(F)cc2)CC1)NC1(C(=O)O)Cc2ccc(-c3ccc(Cl)cc3)cc2C1` (stereo not shown) [Example B128, 2-[({4-[bis(4-Fluorophenyl)methyl]piperazine-1-yl)acetyl)amino]-5-(4-chlorophenyl)indan-2-carboxylic acid] registered a melting point of 184 °C.

`Cc1c(C(=O)NC2(C(=O)O)Cc3ccc(-c4ccc(Cl)cc4)cc3C2)oc2cc(-c3ccc(Cl)cc3)ccc12` (stereo not shown) [Example B129, 5-(4-Chlorophenyl)-2-({[6-(4-chlorophenyl)-3-methyl-1-benzofuran-2-yl]carbonyl}amino)indan-2-carboxylic acid] had a melting point of 257 °C.

The compound `O=C(O)C1(NS(=O)(=O)Cc2ccc(F)cc2)Cc2ccc(-c3ccc(Cl)cc3)cc2C1` (stereo not shown) [Example B130, 5-(4-Chlorophenyl)-2-{[(4-fluorobenzyl)sulfonyl]amino}indan-2-carboxylic acid] registered a melting point of 210 to 213 °C.

In turn, `COc1ccc(-c2ccc3c(c2)CC(NC(=O)Cc2ccc(F)cc2)(C(=O)O)C3)cc1` (stereo not shown) [Example B131, 2-{[(4-Fluorophenyl)acetyl]amino}-5-(4-methoxyphenyl)indan-2-carboxylic acid] yielded a melting point of 227 °C.

Turning to `O=C(CCc1ccc(F)cc1)NC1(C(=O)O)Cc2ccc(-c3ccc(Cl)cc3)cc2C1` (stereo not shown) [Example B132, 5-(4-Chlorophenyl)-2-{[3-(4-fluorophenyl)propanoyl]amino}indan-2-carboxylic acid], the melting point amounted to 220 °C.

`O=C(NC1(C(=O)O)Cc2ccc(-c3ccc(Cl)cc3)cc2C1)c1ccc(F)cc1` (stereo not shown) [Example B133, 5-(4-Chlorophenyl)-2-[(4-fluorobenzoyl)amino]indan-2-carboxylic acid] had a melting point of 251 °C.

Regarding `CS(=O)(=O)c1ccc(CC(=O)NC2(C(=O)O)Cc3ccc(-c4ccc(Cl)cc4)cc3C2)cc1` (stereo not shown) [Example B135, 5-(4-Chlorophenyl)-2-({[4-(methylsulfonyl)phenyl]acetyl}amino)indan-2-carboxylic acid], the melting point is 216 °C.

The compound `O=C(Cc1ccccc1Cl)NC1(C(=O)O)Cc2ccc(-c3ccc(Cl)cc3)cc2C1` (stereo not shown) [Example B136, 5-(4-Chlorophenyl)-2-{[(2-chlorophenyl)acetyl]amino}indan-2-carboxylic acid] displayed a melting point of 222 °C.

On to `O=C(NC1(C(=O)O)Cc2ccc(-c3ccc(Cl)cc3)cc2C1)c1ccc2ncsc2c1` (stereo not shown) [Example B137, 2-[(1,3-Benzothiazol-6-ylcarbonyl)amino]-5-(4-chlorophenyl)indan-2-carboxylic acid], for which the melting point turned out to be 210 °C.

`O=C(Cc1cccc(Cl)c1)NC1(C(=O)O)Cc2ccc(-c3ccc(Cl)cc3)cc2C1` (stereo not shown) [Example B138, 5-(4-Chlorophenyl)-2-{[(3-chlorophenyl)acetyl]amino}indan-2-carboxylic acid] came in with a melting point of 234 °C.

In turn, `CC(C(=O)NC1(C(=O)O)Cc2ccc(-c3ccc(Cl)cc3)cc2C1)c1ccccc1` (stereo not shown) [Example B139, 5-(4-Chlorophenyl)-2-[(2-phenylpropanoyl)amino]indan-2-carboxylic acid] yielded a melting point of 200 to 201 °C.

`O=C(Cc1ccc(NC(=O)c2ccc(F)cc2)cc1)NC1(C(=O)O)Cc2ccc(-c3ccc(Cl)cc3)cc2C1` (stereo not shown) [Example B140, 5-(4-Chlorophenyl)-2-[({4-[(4-fluorobenzoyl)amino]phenyl}acetyl)amino]indan-2-carboxylic acid] yielded a melting point of 252 to 254 °C.

Compound `O=C(Cc1ccc(OCc2ccccc2F)cc1)NC1(C(=O)O)Cc2ccc(-c3ccc(Cl)cc3)cc2C1` (stereo not shown) [Example B141, 5-(4-Chlorophenyl)-2-[({4-[(2-fluorobenzyl)oxy]phenyl}acetyl)amino]indan-2-carboxylic acid] showed a melting point of 232 to 233 °C.

As for `O=C(Cc1ccc(OCc2cccc(F)c2)cc1)NC1(C(=O)O)Cc2ccc(-c3ccc(Cl)cc3)cc2C1` (stereo not shown) [Example B142], the melting point was 209 °C.

Consider `O=C(Cc1ccc(OCc2ccc(Cl)cc2)cc1)NC1(C(=O)O)Cc2ccc(-c3ccc(Cl)cc3)cc2C1` (stereo not shown) [Example B143, 2-[({4-[(4-Chlorobenzyl)oxy]phenyl}acetyl)amino]-5-(4-chlorophenyl)indan-2-carboxylic acid], for which the melting point fell in the range of 230 to 232 °C.

As to `O=C(Cc1ccc(OCc2ccc(F)cc2Cl)cc1)NC1(C(=O)O)Cc2ccc(-c3ccc(Cl)cc3)cc2C1` (stereo not shown) [Example B144, 2-[({4-[(2-Chloro-4-fluorobenzyl)oxy]phenyl}acetyl)amino]-5-(4-chlorophenyl)indan-2-carboxylic acid], the melting point fell in the range of 200 to 201 °C.

`O=C(Cc1ccc(OCc2ccc(C(F)(F)F)cc2)cc1)NC1(C(=O)O)Cc2ccc(-c3ccc(Cl)cc3)cc2C1` (stereo not shown) [Example B145, 5-(4-Chlorophenyl)-2-{[(4-{[4-(trifluoromethyl)benzyl]oxy}phenyl)acetyl]amino)indan-2-carboxylic acid] showed a melting point of 237 to 238 °C.

`O=C(Cc1ccc(OCc2ccoc2)cc1)NC1(C(=O)O)Cc2ccc(-c3ccc(Cl)cc3)cc2C1` (stereo not shown) [Example B146, 5-(4-Chlorophenyl)-2-({[4-(3-furylmethoxy)phenyl]acetyl}amino)indan-2-carboxylic acid] yielded a melting point of 200 to 202 °C.

In turn, `O=C(Cc1ccc(OCc2ccsc2)cc1)NC1(C(=O)O)Cc2ccc(-c3ccc(Cl)cc3)cc2C1` (stereo not shown) [Example B147, 5-(4-Chlorophenyl)-2-({[4-(3-thienylmethoxy)phenyl]acetyl}amino)indan-2-carboxylic acid] returned a melting point of 224 to 226 °C.

On to `O=C(O)CNC(=O)C1(NC(=O)Cc2ccc(OCc3ccccc3)cc2)Cc2ccc(-c3ccc(Cl)cc3)cc2C1` (stereo not shown) [Example B148, N-{[2-({[4-(Benzyloxy)phenyl]acetyl)amino)-5-(4-chlorophenyl)-2,3-dihydro-1H-inden-2-yl]carbonyl}glycine], for which the melting point is 217 to 218 °C.
